Measurements published in patent US20230295109A1, “PYRIDINONE COMPOUNDS FOR THE TREATMENT OF AUTOIMMUNE DISEASE” (F. Hoffmann-La Roche AG, priority 2020, published 2023).

Test: Parallel Artificial Membrane Permeability Assay (PAMPA)
Type: in vitro ADME
Details: for Membrane Retention / Papp at 4 h: PAMPA; for Membrane Retention: pH 7.40, 4 hours; for Papp at 4 h: pH 7.4, pH 7.40, room temperature, read-out: PAMPA Pe; for PAMPA category: class from Pe and membrane retention
Method: PAMPA (Parallel Artificial Membrane Permeability Assay) is a first-line permeability screen for drug candidates. This assay mimics the transcellular absorption conditions using an artificial phospholipid membrane and generates a permeability value that can be used for compound ranking and optimization as well as input parameters for in silico models to predict intestinal absorption.
Permeation experiments are carried out in hydrophobic PVDF 96-well microtiter filter plates (MultiScreen Filter Plate, Millipore, #MAIPN4550). Each well is coated with PVDF membrane, which is prepared with 5 µL Dodecane (Sigma, D221104) that contains 1% lecithin (Sigma, P3556-1G).
The typical PAMPA experimental protocol is as follows: The donor plate is placed on a Teflon acceptor plate that has been pre-filled with 150 µL of 100 mM PBS buffer (2.6 g KH2PO4 and 18.5 g K2HPO4.3H2O are dissolved in about 1000 mL of ultra-pure water and mixed thoroughly. The pH is adjusted to 7.40 ± 0.05, using either 1 M sodium hydroxide or 1 M hydrochloric acid.) containing 5% DMSO. The filter on the bottom of each acceptor well is filled with 300 µL of 100 mM PBS buffer (2.6 g KH2PO4 and 18.5 g K2HPO4.3H2O are dissolved in about 1000 mL of ultra-pure water, mixed thoroughly. The pH was adjusted to 7.40 ± 0.05, using either 1 M sodium hydroxide or 1 M hydrochloric acid.). The resulting sandwich is incubated at room temperature under constant shaking (300 rpm) for 4 hours. The sandwich is then disassembled. Before incubation, spike 20 µL dosing solution and mix with 250 µL PBS and 130 µL quench solution (acetonitrile) as T0 sample. After incubation, collect 270 µL solutions from acceptor chamber, followed by the addition of 130 µL acetonitrile. Collect 20 µL solution from donor chamber and add 250 µL PBS and 130 µL acetonitrile. The concentration of compound in all samples are determined by LC-MS/MS and the equations for determining the permeability (Pe, 10^-6 cm/s ) are as follows.
VD is the volume of the donor well; VR is the volume of the acceptor well; Area is the active surface area of membrane; Time is the incubation time (14,400 s in this assay); CR and CD are the concentrations of compound in acceptor and donor solutions, respectively, at the completion of the assay; C0 is the concentration of compound in donor solution before incubation.
The main readout of the PAMPA assay is the permeability value Pe expressed in 10^-6 cm/s. Secondary readouts determined are the amounts of compound in the donor and acceptor compartments as well as compound retention in the membrane. Depending on the permeation rate and the membrane retention, compounds are classified as “low” (Pe < 0.2 and membrane retention <20%) or “medium & high” (Pe >= 0.2; or Pe < 0.2 and membrane retention >= 20%). Each sample is measured in triplicate; the standard deviation is determined for the permeation constant Pe.

Membrane Retention [%] | Papp at 4 h [×10⁻⁶ cm/s] | SMILES | PAMPA category
-11.520 | 0.57 | CCc1nc(N2CCN(Cc3cnc(N4CC5(CNCCO5)C4)nc3)CC2)ccc1-c1cc(C)c(=O)n(C)c1 [Example 1, 5-[2-ethyl-6-[4-[[2-(5-oxa-2,8-diazaspiro[3.5]nonan-2-yl)pyrimidin-5-yl]methyl]piperazin-1-yl]-3-pyridyl]-1,3-dimethyl-pyridin-2-one] | medium & high (“medium & high” (Pe >= 0.2; or Pe < 0.2 and membrane retention >= 20%))
10.600 | 0.49 | CCc1nc(N2CCN(Cc3ccc(N4CC5(CNCCO5)C4)nc3)CC2)ccc1-c1cc(C)c(=O)n(C)c1 [Example 2, 5-[2-ethyl-6-[4-[[6-(5-oxa-2,8-diazaspiro[3.5]nonan-2-yl)-3 pyridyl]methyl]piperazin-1-yl]-3-pyridyl]-1,3-dimethyl-pyridin-2-one] | medium & high (“medium & high” (Pe >= 0.2; or Pe < 0.2 and membrane retention >= 20%))
-1.260 | 0.53 | CCc1nc(N2CCN(Cc3cnc(N4CC(C)(N)C4)nc3)CC2)ccc1-c1cc(C)c(=O)n(C)c1 [Example 3, 5-[6-[4-[[2-(3-amino-3-methyl-azetidin-1-yl)pyrimidin-5-yl]methyl]piperazin-1-yl]-2-ethyl-3-pyridyl]-1,3-dimethyl-pyridin-2-one] | medium & high (“medium & high” (Pe >= 0.2; or Pe < 0.2 and membrane retention >= 20%))
15.690 | 0.75 | CCc1nc(N2CCN(Cc3cnc(N4CCOC[C@@H](N)C4)nc3)CC2)ccc1-c1cc(C)c(=O)n(C)c1 [Example 4, 5-[6-[4-[[2-[(6S)-6-amino-1,4-oxazepan-4-yl]pyrimidin-5-yl]methyl]piperazin-1-yl]-2-ethyl-3-pyridyl]-1,3-dimethyl-pyridin-2-one] | medium & high (“medium & high” (Pe >= 0.2; or Pe < 0.2 and membrane retention >= 20%))
18.250 | 1.5 | CCc1nc(N2CCN(Cc3ccc(N4CCNCC4)cc3)CC2)ccc1-c1cc(C)c(=O)n(C)c1 [Example 5, 5-[2-ethyl-6-[4-[(4-piperazin-1-ylphenyl)methyl]piperazin-1-yl]-3-pyridyl]-1,3-dimethyl-pyridin-2-one] | medium & high (“medium & high” (Pe >= 0.2; or Pe < 0.2 and membrane retention >= 20%))
19.190 | 0.65 | Cc1cc(-c2ccc(N3CCN(Cc4cnc(N5CC6(CNCCO6)C5)nc4)CC3)nc2C(C)C)cn(C)c1=O [Example 6, 5-[2-isopropyl-6-[4-[[2-(5-oxa-2,8-diazaspiro[3.5]nonan-2-yl)pyrimidin-5-yl]methyl]piperazin-1-yl]-3-pyridyl]-1,3-dimethyl-pyridin-2-one] | medium & high (“medium & high” (Pe >= 0.2; or Pe < 0.2 and membrane retention >= 20%))
2.530 | 0.74 | Cc1cc(-c2ccc(N3CCN(Cc4ccc(N5CCNCC5)cn4)CC3)nc2C(C)C)cn(C)c1=O [Example 7, 5-[2-isopropyl-6-[4-[(5-piperazin-1-yl-2-pyridyl)methyl]piperazin-1-yl]-3-pyridyl]-1,3-dimethyl-pyridin-2-one] | medium & high (“medium & high” (Pe >= 0.2; or Pe < 0.2 and membrane retention >= 20%))
21.370 | 0.95 | Cc1cc(-c2ccc(N3CCN(Cc4cnc(N5CCNCC5)cn4)CC3)nc2C(C)C)cn(C)c1=O [Example 8, 5-[2-isopropyl-6-[4-[(5-piperazin-1-ylpyrazin-2-yl)methyl]piperazin-1-yl]-3-pyridyl]-1,3-dimethyl-pyridin-2-one] | medium & high (“medium & high” (Pe >= 0.2; or Pe < 0.2 and membrane retention >= 20%))
27.230 | 0.78 | Cc1cc(-c2ccc(N3CCN(Cc4cnc(N5CCNCC5)nc4)CC3)nc2C(C)C)cn(C)c1=O [Example 9, 5-[2-isopropyl-6-[4-[(2-piperazin-1-ylpyrimidin-5-yl)methyl]piperazin-1-yl]-3-pyridyl]-1,3-dimethyl-pyridin-2-one] | medium & high (“medium & high” (Pe >= 0.2; or Pe < 0.2 and membrane retention >= 20%))
7.250 | 0.6 | Cc1cc(-c2ccc(N3CCN(Cc4cnc(N5CC(C)(N)C5)nc4)CC3)nc2C(C)C)cn(C)c1=O [Example 10, 5-[6-[4-[[2-(3-amino-3-methyl-azetidin-1-yl)pyrimidin-5-yl]methyl]piperazin-1-yl]-2-isopropyl-3-pyridyl]-1,3-dimethyl-pyridin-2-one] | medium & high (“medium & high” (Pe >= 0.2; or Pe < 0.2 and membrane retention >= 20%))
24.900 | 0.6 | Cc1cc(-c2ccc(N3CCN(Cc4ccc(N5CCNCC5)nc4)CC3)nc2C(C)C)cn(C)c1=O [Example 11, 5-[2-isopropyl-6-[4-[(6-piperazin-1-yl-3-pyridyl)methyl]piperazin-1-yl]-3-pyridyl]-1,3-dimethyl-pyridin-2-one] | medium & high (“medium & high” (Pe >= 0.2; or Pe < 0.2 and membrane retention >= 20%))
15.270 | 0.46 | Cc1cc(-c2ccc(N3CCN(Cc4ncc(N5CCNCC5)cn4)CC3)nc2C(C)C)cn(C)c1=O [Example 12, 5-[2-isopropyl-6-[4-[(5-piperazin-1-ylpyrimidin-2-yl)methyl]piperazin-1-yl]-3-pyridyl]-1,3-dimethyl-pyridin-2-one] | medium & high (“medium & high” (Pe >= 0.2; or Pe < 0.2 and membrane retention >= 20%))
56.550 | 0.46 | Cc1cc(-c2ccc(N3CCN(Cc4ccc(N5CCNCC5)cc4)CC3)nc2C(C)C)cn(C)c1=O [Example 13, 5-[2-isopropyl-6-[4-[(4-piperazin-1-ylphenyl)methyl]piperazin-1-yl]-3-pyridyl]-1,3-dimethyl-pyridin-2-one] | medium & high (“medium & high” (Pe >= 0.2; or Pe < 0.2 and membrane retention >= 20%))
38.020 | 0.54 | Cc1cc(-c2ccc(N3CCN(Cc4cccc(N5CCNCC5)c4)CC3)nc2C(C)C)cn(C)c1=O [Example 14, 5-[2-isopropyl-6-[4-[(3-piperazin-1-ylphenyl)methyl]piperazin-1-yl]-3-pyridyl]-1,3-dimethyl-pyridin-2-one] | medium & high (“medium & high” (Pe >= 0.2; or Pe < 0.2 and membrane retention >= 20%))
27.680 | 0.23 | Cc1cc(-c2ccc(N3CCN(c4ccc5c(n4)CCNC5)CC3)nc2C(C)C)cn(C)c1=O [Example 15, 5-[2-isopropyl-6-[4-(5,6,7,8-tetrahydro-1,6-naphthyridin-2-yl)piperazin-1-yl]-3-pyridyl]-1,3-dimethyl-pyridin-2-one] | medium & high (“medium & high” (Pe >= 0.2; or Pe < 0.2 and membrane retention >= 20%))
30.770 | 0.24 | Cc1cc(-c2ccc(N3CCN4CCN(c5ccc(N6CCNCC6)nc5)CC4C3)nc2C(C)C)cn(C)c1=O (stereo not drawn) [Example 16, 5-[2-isopropyl-6-[8-(6-piperazin-1-yl-3-pyridyl)-3,4,6,7,9,9a-hexahydro-1H-pyrazino[1,2-a]pyrazin-2-yl]-3-pyridyl]-1,3-dimethyl-pyridin-2-one] | medium & high (“medium & high” (Pe >= 0.2; or Pe < 0.2 and membrane retention >= 20%))
50.950 | 1.5 | Cc1cc(-c2ccc(N3CCN(Cc4ccc(N5CCNCC5)cc4)CC3)nc2C(F)F)cn(C)c1=O [Example 17, 5-[2-(difluoromethyl)-6-[4-[(4-piperazin-1-ylphenyl)methyl]piperazin-1-yl]-3-pyridyl]-1,3-dimethyl-pyridin-2-one] | medium & high (“medium & high” (Pe >= 0.2; or Pe < 0.2 and membrane retention >= 20%))
8.650 | 0.74 | Cc1cc(-c2ccc(N3CCC(N4CCNCC4)CC3)nc2C(C)C)cn(C)c1=O [Example 18, 5-[2-isopropyl-6-(4-piperazin-1-yl-1-piperidyl)-3-pyridyl]-1,3-dimethyl-pyridin-2-one] | medium & high (“medium & high” (Pe >= 0.2; or Pe < 0.2 and membrane retention >= 20%))
